Test results: PubChem BioAssay AID1996
Values after ≈ are worked out from the molar mass of the structure shown. Residues, ends and D or L forms follow the SMILES beside them.

Details: buffer; pH 7.4; 200.0 µM
Work on `CSc1ncc(Cl)c(C(=O)Nc2ccc(NC(C)=O)cc2)n1` yielded a solubility kinetic of 18.6 µg/mL (≈ 55.2 µM).
`CN(C)c1nc(N(C)C)nc(N2CC(CCl)OC2=N)n1` (stereo not drawn) showed a solubility kinetic greater than 45 µg/mL.
Compound `O=C(Nc1ccc([N+](=O)[O-])cc1)N1CCc2ccccc2C1` has a solubility kinetic of 22 µg/mL (≈ 74 µM).
In the case of `CC(CN(C)C)CN1c2ccccc2CCc2ccccc21.O=C(O)/C=C\C(=O)O` (stereo not drawn), the solubility kinetic is reported as greater than 61.6 µg/mL.
Compound `C=C(C)CNC(=S)NNC(=O)c1ccncc1` has a solubility kinetic greater than 37.5 µg/mL.
In the case of `COC(=O)[C@H](Cc1ccccc1)NC(=O)[C@@H](N)CC(=O)O` (H-Asp-Phe-OMe), the solubility kinetic is reported as greater than 44.1 µg/mL.
`Cc1ccc(S(=O)(=O)NCCc2cccs2)cc1` gave a solubility kinetic greater than 42.2 µg/mL.
Work on `Cn1c(CNc2ccc(O)cc2)nc2ccccc21` yielded a solubility kinetic of 35 µg/mL (≈ 138 µM).
Work on `Cc1ccccc1Nc1nc(N)nc(COC(=O)c2c(C)noc2C)n1` yielded a solubility kinetic greater than 53.2 µg/mL.
Compound `COCCSc1ccccc1C(=O)NCCc1ccccc1` has a solubility kinetic greater than 47.3 µg/mL.
For `O=c1[nH]cccc1-c1nc2ccccc2n1Cc1cccc(Cl)c1`, the solubility kinetic was 1.4 µg/mL (≈ 4.17 µM).
`O=C(NC12CC3CC(CC(C3)C1)C2)N(Cc1ccccc1)Cc1ccncc1` gave a solubility kinetic of 6.2 µg/mL (≈ 16.5 µM).
Compound `Cc1ccc(NC(=O)CNC(=O)c2ccc3c(c2)OCO3)nc1` has a solubility kinetic of 20.5 µg/mL (≈ 65.4 µM).
Compound `CCC1(C)Cc2ccccc2-c2[nH]c(=S)[nH]c(=O)c21` (stereo not drawn) has a solubility kinetic of 22.1 µg/mL (≈ 81.1 µM).
For `Cc1cc(C)cc(NC(=O)C(=O)NCCCN2CCOCC2)c1`, the solubility kinetic was greater than 47.9 µg/mL.
In the case of `COc1cc(N)c(Cl)cc1C(=O)OCC(=O)N1c2ccccc2NC(=O)C1(C)C`, the solubility kinetic is reported as 5.5 µg/mL (≈ 13.2 µM).
`O=C1C2C3CC(C2C(=O)N1c1cccc(Cl)c1)[C@H](O)C3O` (stereo partly drawn) showed a solubility kinetic greater than 46.2 µg/mL.
For `Cc1cnc(NC(=O)Cc2cccs2)s1`, the solubility kinetic was greater than 35.7 µg/mL.
`CC1CCN(S(=O)(=O)c2cccc(C(=O)Nc3ccccc3)c2)CC1` gave a solubility kinetic of 1.3 µg/mL (≈ 3.63 µM).
Work on `COc1ccc(N=C2NC(=O)C(CO)(CO)S2)cc1` yielded a solubility kinetic greater than 42.3 µg/mL.
`O=C(O)CC1(CC(=O)NCc2cc(F)cc3c2OCOC3)CCCCC1` gave a solubility kinetic greater than 54.8 µg/mL.
Work on `Cc1ccc(S(=O)(=O)/N=C(/Nc2nc(C)cs2)c2ccccc2)cc1` yielded a solubility kinetic of 8 µg/mL (≈ 21.5 µM).
Work on `CCOC(=O)C(=O)c1c(-c2ccc(C)cc2)nc2ccccn12` yielded a solubility kinetic greater than 46.3 µg/mL.
In the case of `Cc1cnc([N+](=O)[O-])n1CCOC(=O)NC(=O)c1c(F)cccc1F`, the solubility kinetic is reported as greater than 53.1 µg/mL.
For `CCOc1ccc(S(=O)(=O)N=C(c2ccccc2)N2CCOCC2)cc1`, the solubility kinetic was greater than 56.2 µg/mL.
Compound `O=C(/C=C/c1ccccc1Cl)NCCCn1ccnc1` has a solubility kinetic of 38.9 µg/mL (≈ 134 µM).
`Cc1cccc(C(=O)Nc2ccc3c(c2)ncn3C)c1` showed a solubility kinetic greater than 39.8 µg/mL.
`O=C(CSc1nc2ccccc2[nH]1)c1c[nH]c2ccccc12` showed a solubility kinetic of 0.6 µg/mL (≈ 1.95 µM).
For `Cc1ccc(/C(O)=C2\C(=O)C(=O)N(C)C2c2ccc(F)cc2)cc1` (stereo not drawn), the solubility kinetic was greater than 48.8 µg/mL.
`COc1ccc(CC(=O)Nc2ccccc2N2CCCCC2)cc1OC` showed a solubility kinetic of 30.7 µg/mL (≈ 86.6 µM).
Work on `Cc1ccc2ncnc(Nc3cccc([N+](=O)[O-])c3)c2c1` yielded a solubility kinetic of 5.9 µg/mL (≈ 21 µM).
Compound `COc1ccc(/C=C/C(=O)Nc2ccc(C)c(S(=O)(=O)N3CCOCC3)c2)cc1` has a solubility kinetic of 7.4 µg/mL (≈ 17.8 µM).
With `COc1ccccc1Cn1c(=S)[nH]c2ccccc2c1=O` the solubility kinetic was 0.5 µg/mL (≈ 1.68 µM).
For `O=c1c(C/C=C/c2ccccc2)c(O)ccn1Cc1cccc(Cl)c1`, the solubility kinetic was less than 0.8 µg/mL.
Compound `CCc1ccc(/C=C2\SC(N3CCCC3)=NC2=O)cc1` has a solubility kinetic of 12.8 µg/mL (≈ 44.7 µM).
`CC(=Nc1ccccc1N)c1c(O)n(C)c(=O)[nH]c1=O` gave a solubility kinetic greater than 41.1 µg/mL.
Compound `C=CCOc1ccc(C2NC(=S)NC3=C2CCc2ccccc23)cc1` (stereo not drawn) has a solubility kinetic of 11.2 µg/mL (≈ 32.1 µM).
`c1ccc(-c2csc(Nc3ccccn3)n2)cc1` showed a solubility kinetic of 0.3 µg/mL (≈ 1.18 µM).
In the case of `O=C(COC(=O)/C=C/c1ccc(Cl)cc1)NC1CC1`, the solubility kinetic is reported as 7.1 µg/mL (≈ 25.4 µM).
For `CCOc1ncccc1-c1nc(-c2cccs2)no1`, the solubility kinetic was 1.8 µg/mL (≈ 6.59 µM).
With `Cc1ccc(NC2CC(=O)N(c3cccc([N+](=O)[O-])c3)C2=O)cc1` (stereo not drawn) the solubility kinetic was 39 µg/mL (≈ 120 µM).
With `NC(=O)c1nn(CC(=O)Nc2ccc3c(c2)OCO3)cc1[N+](=O)[O-]` the solubility kinetic was greater than 50 µg/mL.
In the case of `O=C(Nc1cccc(O)c1)C1CC(c2c(F)cccc2Cl)=NO1` (stereo not drawn), the solubility kinetic is reported as 29.5 µg/mL (≈ 88.1 µM).
Compound `CCOC(=O)CN1C(=O)CC(c2ccccc2)C1=O` (stereo not drawn) has a solubility kinetic greater than 39.2 µg/mL.
`Cc1ccc(NC(=O)c2ccsc2)cc1NS(C)(=O)=O` showed a solubility kinetic greater than 46.6 µg/mL.
For `Cc1ccccc1C(=O)NCC(C)NC(=O)c1ccccc1C` (stereo not drawn), the solubility kinetic was 42.4 µg/mL (≈ 137 µM).
Work on `N/C(=N\OC(=O)c1ccc(Br)cc1)c1cccc([N+](=O)[O-])c1` yielded a solubility kinetic of 0.8 µg/mL (≈ 2.2 µM).
For `Nc1nc2ccc(C(=O)Nc3ccc(N4CCOCC4)cc3)cc2s1`, the solubility kinetic was 8.7 µg/mL (≈ 24.5 µM).
`Cc1c(Cl)cccc1NC(=O)CC(Cc1ccccc1)C(=O)O` (stereo not drawn) showed a solubility kinetic greater than 49.8 µg/mL.
`Nc1ccc(C(=O)NCc2ccccc2)cc1` showed a solubility kinetic greater than 33.9 µg/mL.
With `COc1c(C)cc(S(=O)(=O)NCCN2CCOCC2)c(C)c1C` the solubility kinetic was 46.4 µg/mL (≈ 135 µM).
Work on `COc1ccccc1CNC(=O)COC(=O)Cc1cccs1` yielded a solubility kinetic greater than 47.9 µg/mL.
`NS(=O)(=O)c1ccc(NC(=O)COC(=O)c2ncc(Cl)c(Cl)c2Cl)cc1` gave a solubility kinetic of 54.7 µg/mL (≈ 125 µM).
Work on `CCc1ccccc1NC(=O)Nc1ccsc1C(=O)OC` yielded a solubility kinetic of 16.2 µg/mL (≈ 53.2 µM).
Compound `COCCCNC1CS(=O)(=O)CC1O.Cl` (stereo not drawn) has a solubility kinetic greater than 39 µg/mL.
`CN(CCO)C(=O)c1c(NC(=O)c2ccccc2)sc2c1CCCC2` showed a solubility kinetic of 34.1 µg/mL (≈ 95.1 µM).
Compound `FC(F)(F)c1ccc(NCc2ccccn2)nc1` has a solubility kinetic greater than 38 µg/mL.
For `Cc1ccnn1-c1ccc(C(=O)NCc2ccccc2CN2CCOCC2)cc1`, the solubility kinetic was greater than 58.6 µg/mL.
